Data taken from patent US11840686B2, “Modulation of prekallikrein (PKK) expression” (Ionis Pharmaceuticals, Inc., priority 2013, dated 2023).

How the values were obtained:
human PKK mRNA [1] = experiment: Antisense inhibition of human PKK mRNA in HepaRG cells, 1,000 nM, MOE/deoxy/cEt oligonucleotides (Example 3); type: cell-based; conditions: HepaRG cells, 1,000 nM, electroporation, 24 hours
In short: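 Readout is percent PKK mRNA reduction against untreated controls, by real-time PCR (RTS3454) adjusted for total RNA via RIBOGREEN. Oligonucleotides, phosphorothioate gapmers of 16 nucleosides with cEt, MOE and deoxy sugars, were delivered at 1,000 nM by electroporation to 20,000 HepaRG cells/well for roughly 24 h.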

human PKK mRNA [2] = experiment: Human PKK mRNA in liver of human KLKB1 transgenic mice (Example 7); type: in vivo; conditions: transgenic mice
In short: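 Transgenic mice carrying a 37,390 bp human KLKB1 fragment dosed subcutaneously twice weekly for 3 weeks at 2.5, 5.0, 10 or 20 mg/kg/week; PBS controls. Liver harvested 48 h after the last dose. Human PKK mRNA measured by real-time PCR and expressed as % inhibition versus PBS.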

PKK protein [3] = experiment: Plasma PKK protein levels in human KLKB1 transgenic mice (Example 7); type: in vivo; conditions: transgenic mice
Procedure: Transgenic mice containing a 37,390 base pair fragment of the human KLKB1 gene sequence (chromosome 4: position 187148672-187179625, accession no: NC_000004.11) were treated with ISIS antisense oligonucleotides selected from studies described above, which were evaluated for efficacy in this model.
Groups of transgenic mice were injected subcutaneously twice a week for 3 weeks with 2.5 mg/kg/week, 5.0 mg/kg/week, 10 mg/kg/week or 20 mg/kg/week of ISIS 546232, ISIS 546251, ISIS 546254, ISIS 546343, ISIS 546828, ISIS 547455, ISIS 547457, ISIS 547927, and ISIS 548048. One group of transgenic mice was injected subcutaneously twice a week for 3 weeks with PBS. Mice were euthanized 48 hours after the last dose, and organs and plasma were harvested for further analysis.
Plasma PKK protein levels were evaluated in all groups. Results are presented as percent inhibition of PKK protein, relative to PBS control.

PKK mRNA = PKK mRNA in cynomolgus monkey liver (Example 8); type: in vivo; conditions: primates, Example 8
In short: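 Cynomolgus monkeys were dosed with human antisense oligonucleotides cross-reactive with the rhesus sequence. Liver RNA taken on day 87 or 88, 48 h after the last dose, was assayed by real-time PCR (primer probe set RTS3455) and normalized to cyclophilin. Values are percent PKK mRNA inhibition versus PBS control.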

PKK protein [4] = experiment: PKK protein in cynomolgus monkey plasma by ELISA (Example 8); type: in vivo; conditions: 40 mg/kg sc
Procedure: Approximately 0.9 mL of blood was collected each time from all available animals at pre-dose, day 17, day 31, day 45, day 59, and day 73, and placed in tubes containing 3.2% sodium citrate. The tubes were centrifuged (3000 rpm for 10 min at room temperature) to obtain plasma. PKK protein levels were measured in the plasma by ELISA. The results are presented in Table 52, expressed as percentage inhibition compared to the PBS control levels.

[5] = Tolerability / clinical observation of cynomolgus monkeys (Example 8); type: in vivo, cynomolgus monkey; conditions: primates, Example 8
Procedure: Cynomolgus monkeys were treated with ISIS antisense oligonucleotides selected from studies described above. Antisense oligonucleotide efficacy and tolerability were evaluated. The human antisense oligonucleotides tested are cross-reactive with the rhesus genomic sequence (GENBANK Accession No. NW_001118167.1 truncated from nucleotides 2358000 to 2391000 and designated herein as SEQ ID NO: 18).
During the study period, the monkeys were observed a minimum of once daily for signs of illness or distress. Any animal experiencing more than momentary or slight pain or distress due to the treatment, injury or illness was promptly reported to the responsible veterinarian and the Study Director. Any animal in poor health or in a possible moribund condition was identified for further monitoring and possible euthanasia. […] The protocols described in the Example were approved by the Institutional Animal Care and Use Committee (IACUC).

[6] = Liver function markers in cynomolgus monkeys (Example 8); conditions: cynomolgus monkey plasma, 40 mg/kg sc
Procedure: (§1) Prior to the study, the monkeys were kept in quarantine for a 30-day period, during which the animals were observed daily for general health. The monkeys were 2-4 years old and weighed between 2 and 4 kg. Ten groups of four randomly assigned male cynomolgus monkeys each were injected subcutaneously with ISIS oligonucleotide or PBS. PBS solution or ISIS oligonucleotides at a dose of 40 mg/kg were administered initially with a loading regimen consisting of four doses on the first week of the study (days 1, 3, 5, and 7), followed by a maintenance regimen consisting of once weekly administration starting on Day 14 (weeks 2 to 13). Subcutaneous injections were performed in clock-wise rotations at 4 sites on the back; one site per dose. The injection sites were delineated by tattoo, while sedated using ketamine, and were separated by a minimum of 3 cm.
To evaluate the effect of ISIS oligonucleotides on hepatic function, the monkeys were fasted overnight. Approximately, 1.5 mL of blood samples were collected from all the study groups. Blood was collected in tubes without anticoagulant for serum separation. The tubes were kept at room temperature for a minimum of 90 min and then centrifuged at 3,000 rpm for 10 min. Levels of various liver function markers were measured using a Toshiba 120FR NEO chemistry analyzer (Toshiba Co., Japan).

[7] = Hematological parameters in cynomolgus monkeys (Example 8); conditions: cynomolgus monkey, 40 mg/kg sc, day 87 or day 88
Procedure: as §1
To evaluate any effect of ISIS oligonucleotides in cynomolgus monkeys on hematologic parameters, blood samples of approximately 1.2 mL of blood was collected pre-dose and on day 87 or day 88 from each of the available study animals in tubes containing K2-EDTA. Samples were analyzed for red blood cell (RBC) count, white blood cells (WBC) count, platelet count, hemoglobin content and hematocrit, using an ADVIA2120i hematology analyzer (SIEMENS, USA).

[8] = Urine protein/creatinine ratio in cynomolgus monkeys (Example 8); conditions: cynomolgus monkey, 40 mg/kg sc
[9] = Kidney function: plasma BUN and creatinine in cynomolgus monkeys (Example 8); conditions: 40 mg/kg s.c.
Procedure: as §1
To evaluate the effect of ISIS oligonucleotides on kidney function, the monkeys were fasted overnight. Approximately, 1.5 mL of blood samples were collected from all the study groups. Blood was collected in tubes without anticoagulant for serum separation. The tubes were kept at room temperature for a minimum of 90 min and then centrifuged at 3,000 rpm for 10 min. Levels of BUN and creatinine were measured using a Toshiba 120FR NEO chemistry analyzer (Toshiba Co., Japan).

[10] = C-reactive protein and complement C3 levels in cynomolgus monkeys (Example 8); conditions: cynomolgus monkey plasma, 40 mg/kg sc
Procedure: as §1
To evaluate any inflammatory effect of ISIS oligonucleotides in cynomolgus monkeys, the monkeys were fasted overnight. Approximately, 1.5 mL of blood samples were collected from all the study groups. Blood was collected in tubes without anticoagulant for serum separation. The tubes were kept at room temperature for a minimum of 90 min and then centrifuged at 3,000 rpm for 10 min. C-reactive protein (CRP), which is synthesized in the liver and which serves as a marker of inflammation, was measured using a Toshiba 120FR NEO chemistry analyzer (Toshiba Co., Japan). Complement C3 was also measured similarly, and the data is presented as a percentage of baseline values.

[11] = 2.5 mg/kg/week s.c. twice a week for 3 weeks
[12] = 5.0 mg/kg/week s.c. twice a week for 3 weeks
[13] = 10 mg/kg/week s.c. twice a week for 3 weeks
[14] = 20 mg/kg/week s.c. twice a week for 3 weeks

mCes Ges Aks Tds Ads Tds mCds Ads Tds Gds Ads Tds Tds mCks mCks mCe [ISIS 548048]
mRNA inhibition (human PKK mRNA [1]): 84%
human PKK mRNA inhibition (human PKK mRNA [2]; [11]): 7%
human PKK mRNA inhibition (human PKK mRNA [2]; [12]): 77%
human PKK mRNA inhibition (human PKK mRNA [2]; [13]): 72%
human PKK mRNA inhibition (human PKK mRNA [2]; [14]): 80%
human PKK protein inhibition (PKK protein [3]; [11]): 23%
human PKK protein inhibition (PKK protein [3]; [12]): 70%
human PKK protein inhibition (PKK protein [3]; [13]): 89%
human PKK protein inhibition (PKK protein [3]; [14]): 98%
inhibiting PKK mRNA and protein expression in primates (PKK mRNA): effective for inhibiting PKK mRNA and protein expression
PKK protein level reduction (%) in plasma relative to control levels (PKK protein [4]; Day 17): 90%
PKK protein level reduction (%) in plasma relative to control levels (PKK protein [4]; Day 31): 93%
PKK protein level reduction (%) in plasma relative to control levels (PKK protein [4]; Day 45): 95%
PKK protein level reduction (%) in plasma relative to control levels (PKK protein [4]; Day 59): 95%
PKK protein level reduction (%) in plasma relative to control levels (PKK protein [4]; Day 73): 95%
tolerability in primates [5]: tolerable in primates
ALT [6]: 47 IU/L
AST [6]: 44 IU/L
Albumin [6]: 4.2 g/dL
HCT [7]: 44%
Hemoglobin [7]: 13.4 g/dL
Platelets [7]: 393000 µL⁻¹
RBC [7]: 5.9e+06 µL⁻¹
WBC [7]: 11000 µL⁻¹
Urine protein/creatinine ratio [8]: 0.03
Plasma BUN [9]: 21.9 mg/dL
Plasma Creatinine [9]: 0.9 mg/dL
C3 (% of baseline) [10]: 69 % of baseline
CRP [10]: 0.2 mg/dL
